According to patent US6548715B1, “Structural analogues of vitamin D” (Laboratoire Theramex S.A., priority 1993, dated 2003):
Blank lines part the entries; values can stand above or below the compound they belong to.

Key:
[1] = target: T1, human DBP (vitamin D binding protein) (Homo sapiens, UniProt P02774); experiment: Relative affinity for purified human vitamin D-binding protein (hDBP); conditions: % of the activity of 1α,25-(OH)2D3 at 50% of its activity (B50)
T1 sequence (P02774 17-474): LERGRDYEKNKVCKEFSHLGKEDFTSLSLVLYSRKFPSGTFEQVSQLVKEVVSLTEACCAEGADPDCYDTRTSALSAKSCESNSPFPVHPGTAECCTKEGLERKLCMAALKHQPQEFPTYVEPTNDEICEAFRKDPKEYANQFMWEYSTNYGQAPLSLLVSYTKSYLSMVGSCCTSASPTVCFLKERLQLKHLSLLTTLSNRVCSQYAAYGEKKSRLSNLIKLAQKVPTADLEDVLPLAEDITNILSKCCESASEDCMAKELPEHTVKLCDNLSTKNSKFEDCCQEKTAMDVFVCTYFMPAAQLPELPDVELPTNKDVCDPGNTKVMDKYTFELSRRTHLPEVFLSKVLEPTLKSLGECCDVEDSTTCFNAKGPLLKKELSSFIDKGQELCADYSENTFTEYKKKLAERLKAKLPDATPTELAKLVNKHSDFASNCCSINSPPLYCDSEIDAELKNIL

HL-60 cells = experiment: HL-60 cell differentiation (NBT reduction); format: cell-based; conditions: % of the activity of 1α,25-(OH)2D3 at 50% of its activity (B50); human leukemia cells
Experimental: (§1) HL-60 cells were seeded at 1.2×10^5 cells/ml and 1α,25-(OH)2D3 or its anologs were added in ethanol (final concentration <0.2%) in RPMI 1640 medium supplemented with 10% heat-inactivated fetal calf serum (FCS) for 4 d at 37° C. Cells were then assayed for maturation by NBT reduction assay as described (22) using a hemacytometer, or for proliferation by cell counting and [^3H] thymidine incorporation. MG 63 cells, seeded at 5×10^3 cells/ml in 96 well flat bottomed culture plates (Falcon, Becton Dickinson, N.J.) in a volume of 0.2 ml of DMEM and 2% FCS, were incubated with 1α,25-(OH)2D3 or its analogues for 72 h. Osteocalcin was then measured in the culture medium using a homologous human osteocalcin RIA (39). Breast carcinoma cells (MCF-7 or GR) were grown in DMEM/nut.mix F-12 (HAM) medium supplemented with 10% FCS. Cells (5000/Well) were incubated during 24 h in 96 well tissue culture plates (Falcon 3072) followed by a 72 h incubation with/without 1α,25-(OH)2D3 or analogues. The cells were then incubated with [^3H]thymidine (1 μCi/well) for 4 h and harvested thereafter in NaOH (0.1 M) and the radioactivity counted. The protein content of the cells was measured by the Pierce BCA protein assay (Rockford, Ill.).

MG-63 cells = experiment: MG-63 osteosarcoma cells, osteocalcin secretion; format: cell-based; conditions: % of the activity of 1α,25-(OH)2D3 at 50% of its activity (B50); human osteosarcoma cells
Experimental: as §1

MCF-7 cells = experiment: MCF-7 breast cancer cell proliferation ([3H]thymidine incorporation); format: cell-based; conditions: % of the activity of 1α,25-(OH)2D3 at 50% of its activity (B50); human breast cancer cells
Experimental: as §1

[2] = test system: human normal keratinocytes; experiment: Human keratinocyte proliferation ([3H]thymidine incorporation); format: cell-based; conditions: % of the activity of 1α,25-(OH)2D3 at 50% of its activity (B50)
Experimental: to evaluate the effects on cell proliferation of non-malignant cells and especially to evaluate their potential for use for dermatological disorders, the new compounds were tested in cultures of human normal keratinocytes.
Human skin keratinocytes were isolated and cultured using a modification of the method of Kitano and Okada (38).
Briefly, the skin from biopsies of patients with breast tumors, was cutted into pieces measuring 3-5 mm and soaked overnight at 4° C. in a solution of dispase (20 Boehringer units/ml). The epidermis was peeled from the dermis, washed with calcium- and magnesium-free phosphate buffered saline and incubated and shaked in a 0.25% trypsin solution for 10 min at room temperature. The reaction was then stopped by addition of PBS containing 10% FCS. The cells were collected after centrifugation at 4° C. for 10 min at 800 rpm. After an additional washing with PBS, the pellet was suspended in culture medium into 25 cm^2 primaria flasks from Becton Dickinson. The keratinocytes were cultivated at 37° C. in an atmosphere of 5% CO2 in air. A few hours later, the medium was replaced by new one. The medium [Keratinocyte Medium from Gibco containing Epidermal Growth Factor (5 ng/ml), Bovine Pituitary Extract (35-50 μg/ml) and antibiotics] was renewed every other day until confluency.
Keratinocytes were cultured in 96-well plate and, after 24 hours, were treated with various concentrations of vitamin D analogues, followed by pulse labelling with 1 μCi of [^3H]thymidine for 3 hours. Cultures were washed 3 times with PBS and twice with 10% (v/v) ice cold trichloroacetic acid. Cells were solubilized with 1 M NaOH and radioactivity was counted in a scintillation counter.

[3] = test system: vitamin D-deficient chicks; experiment: Calcemic effect in vitamin D-deficient chicks (serum calcium); format: in vivo, chick; conditions: % of the activity of 1α,25-(OH)2D3 at 50% of its activity (B50); vitamin D-deficient chicks injected 10 consecutive days
Experimental: The antirachitic activity of the analogues was tested in 3 weeks old vitamin D-deficient chicks injected for 10 consecutive days with 1α,25-(OH)2D3 or its analogues (22,23). Serum calcium (by atomic absorptiometry) and osteocalcin (by specific RIA), duodenal calbindin D-28K (by RIA) and bone calcium content were measured. The hypercalcemic effect of the most interesting anologues was also tested in vitamin D-replete normal NMRI mice by daily sc injection of 1α,25-(OH)2D3, its analogues or the solvent for 7 consecutive days, using serum, bone and urinary calcium excretion and serum osteocalcin (by specific mouse RIA) as parameters (40).

[4] = test system: spontaneously diabetic NOD mice; experiment: Prevention of autoimmune disease recurrence after syngeneic islet transplantation in diabetic NOD mice; format: in vivo; conditions: Nr 46 10 μg/kg/2d
Excerpt: To evaluate the immune potential of the analogues the well known model of prevention of autoimmune disease recurrence in the spontaneously diabetic NOD mice was used. When syngeneic NOD islets are transplanted under the kidney capsule of spontaneously diabetic NOD mice, diabetes is only cured for some days, since in the absence of immunomodulatory treatment, the newly transplanted islets are destroyed within 14 days.

vitamin D receptor = target: T2, vitamin D receptor (Sus scrofa, UniProt A3RGC1); conditions: % of the activity of 1α,25-(OH)2D3 at 50% of its activity (B50); 1α,25-(OH)2D3 assigned 100%
T2 sequence (A3RGC1 1-427): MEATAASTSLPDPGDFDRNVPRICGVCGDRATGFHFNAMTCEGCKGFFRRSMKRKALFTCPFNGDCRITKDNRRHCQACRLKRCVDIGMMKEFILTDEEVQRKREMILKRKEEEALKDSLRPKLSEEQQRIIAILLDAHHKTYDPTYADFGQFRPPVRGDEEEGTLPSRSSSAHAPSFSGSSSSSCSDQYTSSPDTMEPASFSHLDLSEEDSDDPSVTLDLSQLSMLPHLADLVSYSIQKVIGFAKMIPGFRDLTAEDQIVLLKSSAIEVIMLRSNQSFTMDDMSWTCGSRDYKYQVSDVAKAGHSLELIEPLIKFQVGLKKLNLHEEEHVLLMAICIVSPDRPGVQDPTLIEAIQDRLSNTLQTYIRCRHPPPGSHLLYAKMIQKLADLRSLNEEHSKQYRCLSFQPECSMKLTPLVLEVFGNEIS

Compound: CC(CC#CC(C)(C)O)C1CCC2C(=CC=C3CC(O)CC(O)C3)CCCC21C (stereo not drawn) [Compound 46]
- Affinity for human DBP [1]: <0.5%
- Cell differentation/cell proliferation HL-60 (HL-60 cells): 1650%
- Cell differentation/cell proliferation MG-63 (MG-63 cells): 500%
- Cell differentation/cell proliferation MCF-7 (MCF-7 cells): 1950%
- Cell differentation/cell proliferation keratinocytes [2]: 1000%
- Ca serum chick [3]: 2%
- Mean survival of islets and range [4]: 19 (6-51) d
- Affinity for pig receptor (vitamin D receptor): 30%

Compound: C=C1/C(=C\C=C2/CCC[C@](C)([C@H](C)[C@H](C)CC[C@@H](O)C(C)C)C2)C[C@@H](O)C[C@@H]1O [Compound 5]
- Affinity for human DBP [1]: 10%
- Cell differentation/cell proliferation HL-60 (HL-60 cells): 4000%
- Cell differentation/cell proliferation MG-63 (MG-63 cells): 1000%
- Cell differentation/cell proliferation MCF-7 (MCF-7 cells): 6000%
- Cell differentation/cell proliferation keratinocytes [2]: 5000%
- Ca serum chick [3]: 9%
- Affinity for pig receptor (vitamin D receptor): 80%

Compound: C=C1/C(=C\C=C2/CCC[C@](C)([C@H](C)[C@H](C)CC[C@H](O)C(C)C)C2)C[C@@H](O)C[C@@H]1O [Compound 4]
- Affinity for human DBP [1]: 5%
- Cell differentation/cell proliferation HL-60 (HL-60 cells): 500%
- Cell differentation/cell proliferation MG-63 (MG-63 cells): 100%
- Cell differentation/cell proliferation MCF-7 (MCF-7 cells): 2000%
- Cell differentation/cell proliferation keratinocytes [2]: 2000%
- Ca serum chick [3]: <1%
- Affinity for pig receptor (vitamin D receptor): 60%

The next lines start with results.

- Affinity for human DBP [1]: 19%
- Ca serum chick [3]: <0.1%
- Affinity for pig receptor (vitamin D receptor): 8%
Compound: C=C1C(=CC=CCC2(C)CCC(CCCC(C)(C)O)C2(C)C)CC(O)CC1O (stereo not drawn) [Compound 11]
- Cell differentation/cell proliferation HL-60 (HL-60 cells): 30%
- Cell differentation/cell proliferation MG-63 (MG-63 cells): 35%
- Cell differentation/cell proliferation MCF-7 (MCF-7 cells): 30%
- Cell differentation/cell proliferation keratinocytes [2]: 10%

- Affinity for human DBP [1]: 5%
- Ca serum chick [3]: <0.1%
- Affinity for pig receptor (vitamin D receptor): 45%
Compound: C=C1C(=CC=CCC2(C)CCC(CCCC(O)(CC)CC)C2(C)C)CC(O)CC1O (stereo not drawn) [Compound 12]
- Cell differentation/cell proliferation HL-60 (HL-60 cells): 250%
- Cell differentation/cell proliferation MG-63 (MG-63 cells): 135%
- Cell differentation/cell proliferation MCF-7 (MCF-7 cells): 80%
- Cell differentation/cell proliferation keratinocytes [2]: 100%
